Measurements published in patent US11389423B2, “Pharmaceutical composition, excipient for the composition and use of the composition” (priority 2018, dated 2022).

Columns and labels:
[1] = system: Salmonella typhimurium TA100; assay: AMES test, strain TA100; type: cell-based; conditions: TA100, with (+S9) and without (-S9) metabolic activation, 62.5-375 μg/plate
Excerpt: For the AMES test, the TA 100 and TA 98 strains of Salmonella typhimurium were used. The strain TA 100, which detects mutagens causing base pair replacement in DNA, contains a mutation in the hisG gene (hisG46), which codes for the first histidine biosynthesis enzyme, with the CG pair as the preferred point for reversion. The strain TA 98 has a mutation in the hisD gene to reverse eight repetitive GC residues and detects mutagenic compounds causing the DNA reading frame to shift. According to the methodology of direct incorporation in plates, developed by Maron and Ames (1983), different concentrations of CBD-SINT (375, 250, 125 and 62.5 μg/plate) were mixed with 0.1 mL of the bacteria culture and 2 mL of surface agar (top agar), supplemented with traces of histidine and biotin. For the tests with metabolic activation, 0.5 mL homogenized microsomal fraction S9 of rat liver (post-mitochondrial fraction, supplemented with a cofactor, prepared from the liver of rodents treated with an enzymatic inducing agent, arochloror 1254) (MOLTOX—Molecular Toxicology, USA) were added. As a negative control, double-distilled water (vehicle) was used. As a positive control for TA98, 4-nirophenylenediamine (NPD) dissolved in DMSO was used at a concentration of 10 μg/plate. […] After this period, the number of reversing colonies per plate was counted. […]

rats (male and female) = assay: Single dose (acute) toxicity study in rats; type: in vivo
Protocol: The single-dose (acute) toxicity study was carried out with different groups of rats and mice (male and female) and according to the procedures recommended by OECD (2001) and ANVISA (2013).
After a 6 h-fasting period, the animals' body weight was determined, and the dose of the synthetic CBD was calculated. Two single doses (1000 and 2000 mg/kg) of synthetic CBD were administered orally (with the aid of a gavage probe) and intraperitoneally in different groups of rats and mice (male and female). Other different groups of rodents were treated with placebo and were considered as control groups.
The animals were carefully observed for any toxicity signs within the first eight hours after treatment, and daily for a period of 14 days. On the 15th day all animals were euthanized, and the respective anatomopathological investigations were performed on the 15th day after the treatments.

male rabbits = assay: Effects on respiratory system, respiratory rate; type: in vivo, New Zealand rabbits; conditions: one hour after treatment
Protocol: Male New Zealand rabbits (n=6 per group) were used for pharmacological safety tests. All tests were performed orally (route recommended for humans) and the investigated parameters were determined after a single administration of CBD-SINT. CBD-SINT doses were determined by allometric extrapolation from the average dose used in human patients (25 mg/kg).
The dose of 51 mg/kg was used as the intermediate dose, stipulating a higher and a lower dose. Three dose ranges were used according to the Guide for Conducting Non-Clinical Toxicology and Pharmacological Safety Studies Necessary for Drug Development (ANVISA, 2013; Version 1.2). Thus, the doses used were 17, 51 and 170 mg/kg of CBD-SINT.
After 6-h fasting, three doses of CBD-SINT (17, 51 and 170 mg/kg) were administered to different groups of male rabbits by gavage. Placebo was administered to the control group (1 mL/kg). One hour after treatments, all rabbits remained conscious in the prone position. The respiratory rate was determined using a Kofranyi-Michaelis respirometer (Murphy, 2002). For arterial blood gas analysis, arterial blood samples were taken from the central ear artery and immediately processed. All parameters below were determined on a Cobas b 221 multiparametric blood gas analyzer (Roche Diagnostics, Rotkreuz, Switzerland): pH, PCO2 (mm Hg), PO2 (mm Hg), SO2(%), Htc (%), tHb (g/dL), Na+ (mmol/L), K+ (mmol/L), Ca2+ (mmol/L), Cl− (mmol/L), glucose (mg/dL), lactate (mmol/L), O2Hb (%), HHb (%), P50 (mm Hg), H+ (nmol/L), BE (nmol/L), BEecf (nmol/L), BB (mmol/L), cHCO3 (mmol/L), ctCO2 (B) (mmol/L), ctCO2 (P) (mmol/L) and ctO2 (% by volume).

[2] = 1000 mg/kg and 2000 mg/kg intraperitoneally, single dose

C=C(C)[C@@H]1CCC(C)=C[C@H]1c1c(O)cc(CCCCC)cc1O [CBD-SINT, Cannabidiol]
frequency of reversible mutants with the increase in concentration [1]: no increase | mutagenicity ratios (MR) [1]: less than 2 | abdominal contortions during the first 8 hours (rats (male and female); [2]): occasional abdominal contortions | activity during the first 8 hours of observation (rats (male and female); [2]): significant decrease in its activity | daily feed and water consumption compared to placebo (rats (male and female); 1000 and 2000 mg/kg, oral or intraperitoneal): no change | final body weight and body weight gains vs placebo (rats (male and female); 1000 and 2000 mg/kg, oral or intraperitoneal, 14 days): similar | appearance and general behavior pattern until the end of the 14-days observation (rats (male and female); 1000 and 2000 mg/kg, oral or intraperitoneal, after the first 8 h): no significant changes | absolute (g) or relative (%) weight of all organs vs placebo (rats (male and female); after 14 days): no significant differences | histopathological analyzes (rats (male and female); day 15): no significant changes | macroscopic examination of vital organs (rats (male and female); day 15): did not disclose any abnormalities | deaths (LD50 not set forth) (rats (male and female); doses up to 2000 mg/kg orally or intraperitoneally, 14 days): no deaths were observed | respiratory rate (male rabbits; 17 mg/kg by gavage): 55±6.48 bpm | respiratory rate (male rabbits; 51 mg/kg by gavage): 57±5.43 bpm | respiratory rate (male rabbits; 170 mg/kg by gavage): 56±5.66 bpm
